Laboratory results: article PMC7211198, “Phase 1b study of a small molecule antagonist of human chemokine (C-C motif) receptor 2 (PF-04136309) in combination with nab-paclitaxel/gemcitabine in first-line treatment of metastatic pancreatic ductal adenocarcinoma” (Investigational New Drugs, 2019)
Marks after values point to notes of the source that are not given here.

Assay: Safety and tolerability (TEAEs, SAEs, DLTs, RP2D) in phase Ib study
Assay type: in vivo, human
Text: Safety assessments included collection of adverse events (AEs), serious AEs (SAEs), vital signs and physical examination, electrocardiogram (12-lead), laboratory assessments, including pregnancy test, and verification of concomitant treatments. A patient was considered as DLT-evaluable if the patient experienced a DLT or if otherwise, in the absence of a DLT, the patient received at least 85% of the planned doses of each study drug in the first 28-day cycle. DLTs were defined as any of the following events occurring in the first cycle of treatment (days 1 through 28) and attributed (i.e., judged to be at least possibly related) to the combination of PF-04136309 plus nab-paclitaxel/gemcitabine, where relationship with the combination could not be ruled out. DLTs were hematologic events of grade 4 neutropenia lasting >5 days; febrile neutropenia; grade ≥ 3 neutropenic infection; grade ≥ 3 thrombocytopenia with grade ≥ 2 bleeding; grade 4 thrombocytopenia; and nonhematologic events of grade 3 toxicities. Exceptions included nausea and vomiting responding to prophylaxis and/or treatment and lasting <7 days from each chemotherapy infusion period; diarrhea responding to treatment and lasting <7 days; grade 3 fatigue lasting <7 days; grade 3 QT interval corrected for heart rate prolongation (>500 msec) persisting after correction of any reversible causes; and/or grade 3 aspartate aminotransferase (AST) and/or alanine aminotransferase (ALT) increase lasting ≤7 days. All grade 4 toxicities and a delay of >2 weeks in receiving the next scheduled cycle due to persistent treatment-related toxicities were considered DLTs. AEs meeting DLT criteria in the dose-expansion phase included grade 3 events of diarrhea, hypokalemia, and dysesthesia and grade 4 hypoxia. […] AEs were graded according to the National Cancer Institute Common Terminology Criteria for Adverse Events, version 4.03.

[1] = 750 mg BID + nab-P/Gem, all-causality TEAE
[2] = 750 mg BID + nab-P/Gem, treatment-related SAE
[3] = 500-mg BID group (n = 17), n = 1, considered unrelated to study treatment
[4] = Total N = 21, treatment-related TEAE

O=C(NCC(=O)N1CC[C@H](N[C@H]2CC[C@@](O)(c3ccc(-c4ncccn4)cn3)CC2)C1)c1cccc(C(F)(F)F)c1 [PF-04136309]
Chills, Grade 5 [1]: 0 n (%) | Chills, Total [1]: 2 (50.0) n (%) | Constipation, Grade 1 [1]: 2 (50.0) n (%) | Constipation, Grade 2 [1]: 1 (25.0) n (%) | Constipation, Grade 3 [1]: 0 n (%) | Constipation, Grade 4 [1]: 0 n (%) | Constipation, Grade 5 [1]: 0 n (%) | Constipation, Total [1]: 3 (75.0) n (%) | Fatigue, Grade 1 [1]: 3 (75.0) n (%) | Fatigue, Grade 2 [1]: 1 (25.0) n (%) | Fatigue, Grade 3 [1]: 0 n (%) | Fatigue, Grade 4 [1]: 0 n (%) | Fatigue, Grade 5 [1]: 0 n (%) | Fatigue, Total [1]: 4 (100.0) n (%) | Insomnia, Grade 1 [1]: 1 (25.0) n (%) | Insomnia, Grade 2 [1]: 1 (25.0) n (%) | Insomnia, Grade 3 [1]: 0 n (%) | Insomnia, Grade 4 [1]: 0 n (%) | Insomnia, Grade 5 [1]: 0 n (%) | Insomnia, Total [1]: 2 (50.0) n (%) | Leukopenia, Grade 1 [1]: 0 n (%) | Leukopenia, Grade 2 [1]: 0 n (%) | Leukopenia, Grade 3 [1]: 3 (75.0) n (%) | Leukopenia, Grade 4 [1]: 0 n (%) | Leukopenia, Grade 5 [1]: 0 n (%) | Leukopenia, Total [1]: 3 (75.0) n (%) | Malaise, Grade 1 [1]: 2 (50.0) n (%) | Malaise, Grade 2 [1]: 0 n (%) | Malaise, Grade 3 [1]: 0 n (%) | Malaise, Grade 4 [1]: 0 n (%) | Malaise, Grade 5 [1]: 0 n (%) | Malaise, Total [1]: 2 (50.0) n (%) | Nausea, Grade 1 [1]: 3 (75.0) n (%) | Nausea, Grade 2 [1]: 0 n (%) | Nausea, Grade 3 [1]: 1 (25.0) n (%) | Nausea, Grade 4 [1]: 0 n (%) | Nausea, Grade 5 [1]: 0 n (%) | Nausea, Total [1]: 4 (100.0) n (%) | Neutropenia, Grade 1 [1]: 0 n (%) | Neutropenia, Grade 2 [1]: 0 n (%) | Neutropenia, Grade 3 [1]: 3 (75.0) n (%) | Neutropenia, Grade 4 [1]: 0 n (%) | Neutropenia, Grade 5 [1]: 0 n (%) | Neutropenia, Total [1]: 3 (75.0) n (%) | Pain in extremity, Grade 1 [1]: 1 (25.0) n (%) | Pain in extremity, Grade 2 [1]: 1 (25.0) n (%) | Pain in extremity, Grade 3 [1]: 0 n (%) | Pain in extremity, Grade 4 [1]: 0 n (%) | Pain in extremity, Grade 5 [1]: 0 n (%) | Pain in extremity, Total [1]: 2 (50.0) n (%) | Pyrexia, Grade 1 [1]: 1 (25.0) n (%) | Pyrexia, Grade 2 [1]: 1 (25.0) n (%) | Pyrexia, Grade 3 [1]: 0 n (%) | Pyrexia, Grade 4 [1]: 0 n (%) | Pyrexia, Grade 5 [1]: 0 n (%) | Pyrexia, Total [1]: 2 (50.0) n (%) | Rash, Grade 1 [1]: 2 (50.0) n (%) | Rash, Grade 2 [1]: 1 (25.0) n (%) | Rash, Grade 3 [1]: 0 n (%) | Rash, Grade 4 [1]: 0 n (%) | Rash, Grade 5 [1]: 0 n (%) | Rash, Total [1]: 3 (75.0) n (%) | Thrombocytopenia, Grade 1 [1]: 1 (25.0) n (%) | Thrombocytopenia, Grade 2 [1]: 1 (25.0) n (%) | Thrombocytopenia, Grade 3 [1]: 0 n (%) | Thrombocytopenia, Grade 4 [1]: 0 n (%) | Thrombocytopenia, Grade 5 [1]: 0 n (%) | Thrombocytopenia, Total [1]: 2 (50.0) n (%) | Vomiting, Grade 1 [1]: 2 (50.0) n (%) | Vomiting, Grade 2 [1]: 1 (25.0) n (%) | Vomiting, Grade 3 [1]: 0 n (%) | Vomiting, Grade 4 [1]: 0 n (%) | Vomiting, Grade 5 [1]: 0 n (%) | Vomiting, Total [1]: 3 (75.0) n (%) | Any SAE, Grade 1 [2]: 0 n (%) | Any SAE, Grade 2 [2]: 1 (25.0) n (%) | Any SAE, Grade 3 [2]: 1 (25.0) n (%) | Any SAE, Grade 4 [2]: 0 n (%) | Any SAE, Grade 5 [2]: 0 n (%) | Any SAE, Total [2]: 2 (50.0) n (%) | Cognitive disorder, Grade 1 [2]: 0 n (%) | Cognitive disorder, Grade 2 [2]: 0 n (%) | Cognitive disorder, Grade 3 [2]: 1 (25.0) n (%) | Cognitive disorder, Grade 4 [2]: 0 n (%) | Cognitive disorder, Grade 5 [2]: 0 n (%) | Cognitive disorder, Total [2]: 1 (25.0) n (%) | Rash, Grade 1 [2]: 0 n (%) | Rash, Grade 2 [2]: 1 (25.0) n (%) | Rash, Grade 3 [2]: 0 n (%) | Rash, Grade 4 [2]: 0 n (%) | Rash, Grade 5 [2]: 0 n (%) | Rash, Total [2]: 1 (25.0) n (%) | Patients who experienced SAEs (14 of the 21 treated patients): 66.7% | Grade 4 TEAE: decreased neutrophil count, patients [3]: 5.9% | Grade 4 TEAE: decreased white blood cell count, patients [3]: 5.9% | PF-04136309-related TEAE: rash, patients (500-mg BID group (n = 17), n = 6): 35.3% | PF-04136309-related TEAE: rash, patients (750-mg BID group (n = 4), n = 3): 75.0% | DLT events (750-mg BID group, one of four patients, cycle 1 day 7, resolved same day): grade 3 cognitive disorder | ALT increase, grade ≥3 [4]: 4 (19.0) n (%) | AST increase, grade ≥3 [4]: 4 (19.0) n (%) | Anemia, grade ≥3 [4]: 4 (19.0) n (%) | Fatigue, grade ≥3 [4]: 4 (19.0) n (%) | Leukopenia, grade ≥3 [4]: 5 (23.8) n (%) | Lymphopenia, grade ≥3 [4]: 5 (23.8) n (%) | Neutropenia, grade ≥3 [4]: 5 (23.8) n (%) | DLT (Total n = 21, first cycle, 5 DLTs in four patients): 4 (19.0)^c n (%) | Deaths (all in 500-mg BID group, 10 of 11 due to disease under study, one due to grade 5 pneumonia): Eleven | Changes in laboratory tests consistent with a relationship to study drug (all treated patients): no clinically significant changes | Changes in vital signs data consistent with a relationship to study drug (all treated patients): no clinically significant changes | Recommended phase II dose (RP2D) (in combination with nab-paclitaxel/gemcitabine): 500 mg BID | Late-onset DLT (in vivo): Grade 3 pneumonitis | Incidence of pulmonary toxicity (n = 21, combination with nab-paclitaxel/gemcitabine): 24% | Patients who experienced treatment-related SAEs (seven of 21, attributed to at least one of PF-04136309, nab-paclitaxel, gemcitabine): 33.3%
